Test [1] is described as follows: viability of uninfected HEp-2 cells – cell-based, HTS, cytotoxicity control for RSV inhibitor project, dose response (AID 2410). The class given is functional. As to conditions: human respiratory syncytial virus.
A further test has as its target Paired box protein Pax-8 (Homo sapiens, UniProt Q06710). The test is described as follows: PAX8 transcriptional activity inhibition in RMG-I – RMG-I cells, luciferase, cherry-pick, dose response (AID 687027).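 Also: luciferase reporter driven by Pax8 target thyroperoxidase promoter measured by SteadyGlo luminescence.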 The class given is functional, cell-based.
Test [2] is described as follows: cells. The class given is functional, cell-based.
A short description of test [3]: cells. The test is classed as functional, cell-based. This is another data set of the same source.
Test [4] is described as follows: alpha-synuclein stem-loop luciferase translation blockers – H4 neuroglioma cells, luminescence, confirmation (AID 1988). The class given is functional, cell-based.
Test [5] is described as follows: Luminescence Cell-Based Dose Response HTS to Identify Inhibitors of 5'UTR Stem-Loop Driven Prion Protein mRNA Translation in H4 Neuroglioblastoma Cells. [Related pubchem assays: 1827 (Project Summary), 1813 (Primary HTS)]. The class given is functional.
Test [6] in a line: NIH3T3 cell viability loss – ATP luminescence, mouse fibroblasts, counter-screen, dose response (AID 2010).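 Also: cells exposed to compound for about 90 hours before reading.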 The class given is functional, cell-based.
A short description of test [7]: Trypanosoma cruzi growth suppression in host cells – NIH3T3 host cells, beta-gal luminescence, confirmation (AID 2044).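 Also: intracellular parasites grown in NIH/3T3 mouse fibroblasts as host cells; luminescent beta-galactosidase reporter signal from transgenic T. cruzi replicating inside host cells; inhibitors lower the luminescence signal.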 The class given is functional, cell-based.
Test [8] in a line: luciferase reporter signal suppression in cells – H4 neuroglioma cells, luminescence, dose response (AID 1990). The test is classed as functional, cell-based.
In another test the test system is INS1. Kind of test: INS-1E survival protection against cytokine death – cell-based, luminescence, retest, dose response (AID 449756).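 Also: cell death triggered by IL-1 beta plus TNF-alpha plus IFN-gamma mixture; protective hits raise ATP signal compared with cytokine alone wells.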 The test is classed as functional. The note with it: Rattus norvegicus.
Test [9] in a line: Luminescence Cell-Based Dose Retest to Confirm Inhibitors of Cancer Stem Cells. [Related pubchem assays (depositor defined):AID2717, AID2721]. The note with it: Homo sapiens. The test is classed as functional.
Test [10] is described as follows: loss of viability in HepG2 cells – cell-based, CellTiter-Glo, cherry-picked, cytotoxicity control for Shn3 inhibitor project, dose response (AID 624134). The class given is functional.
Test [11] in a line: non-specific 3'UTR reporter inhibition in Clone20-Shn3RL – cell-based, Renilla luciferase, cherry-picked, counter-screen for Shn3 inhibitor project, dose response (AID 624133). The test is classed as functional.
Test [12] is described as follows: reduction of Shn3 3'UTR-driven luciferase in osteoblasts – cell-based, Clone20 osteoblasts, firefly luciferase, cherry-picked, dose response (AID 624132).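 Also: firefly luciferase luminescence from reporter carrying the Shn3 3'UTR in osteoblasts.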 The test is classed as functional.
Test [13] deals with T1, Corticotropin-releasing factor receptor 2/Corticotropin-releasing factor-binding protein (Homo sapiens, UniProt P24387+Q13324).
T1 sequence (Q13324 whole entry): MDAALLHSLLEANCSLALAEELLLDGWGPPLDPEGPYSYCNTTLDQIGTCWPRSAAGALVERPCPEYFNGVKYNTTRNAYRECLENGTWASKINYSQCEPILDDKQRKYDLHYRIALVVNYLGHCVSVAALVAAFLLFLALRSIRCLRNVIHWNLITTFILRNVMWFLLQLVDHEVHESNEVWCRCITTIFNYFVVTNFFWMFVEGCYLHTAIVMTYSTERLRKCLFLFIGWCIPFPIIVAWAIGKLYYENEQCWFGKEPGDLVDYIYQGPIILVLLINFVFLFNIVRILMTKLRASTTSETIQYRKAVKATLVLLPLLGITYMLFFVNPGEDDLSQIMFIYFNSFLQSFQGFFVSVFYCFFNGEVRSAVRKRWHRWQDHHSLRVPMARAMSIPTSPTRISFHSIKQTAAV
T1 sequence (P24387 whole entry): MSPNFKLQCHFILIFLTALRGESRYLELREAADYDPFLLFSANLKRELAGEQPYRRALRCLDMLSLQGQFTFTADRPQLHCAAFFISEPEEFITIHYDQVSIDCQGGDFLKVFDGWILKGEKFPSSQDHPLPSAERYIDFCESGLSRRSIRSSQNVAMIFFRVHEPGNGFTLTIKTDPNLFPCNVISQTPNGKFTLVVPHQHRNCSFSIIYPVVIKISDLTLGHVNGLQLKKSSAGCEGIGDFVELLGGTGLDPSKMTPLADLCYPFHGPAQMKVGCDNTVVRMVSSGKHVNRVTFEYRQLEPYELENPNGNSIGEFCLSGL
The test is described as follows: activators of CRF receptor 2 with binding protein – uHTS hits, confirmation (AID 602473). The class given is functional. As to conditions: read-out: EC50_Mean.

For another test, the target named is T2, Cytochrome P450 1A2 (Homo sapiens, UniProt P05177).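 Also: PubChem cytochrome P450 panel assay, CYP1A2 panel member.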
T2 sequence (P05177 whole entry): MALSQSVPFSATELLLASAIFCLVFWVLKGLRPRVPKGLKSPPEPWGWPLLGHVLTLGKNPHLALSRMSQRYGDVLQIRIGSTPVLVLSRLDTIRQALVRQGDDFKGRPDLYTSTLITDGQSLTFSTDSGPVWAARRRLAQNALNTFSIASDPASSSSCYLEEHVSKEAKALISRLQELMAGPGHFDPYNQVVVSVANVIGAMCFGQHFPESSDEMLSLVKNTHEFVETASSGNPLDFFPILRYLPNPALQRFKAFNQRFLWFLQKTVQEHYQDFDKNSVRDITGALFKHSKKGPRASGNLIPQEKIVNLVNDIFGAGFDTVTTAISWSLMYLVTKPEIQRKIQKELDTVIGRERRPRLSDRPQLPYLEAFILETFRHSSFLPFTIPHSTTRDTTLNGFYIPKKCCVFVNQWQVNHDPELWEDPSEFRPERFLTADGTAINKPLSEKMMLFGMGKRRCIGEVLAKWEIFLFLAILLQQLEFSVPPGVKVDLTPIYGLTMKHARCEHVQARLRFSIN

Active and inactive are the calls of the source.

Paired box protein Pax-8, sequence (Q06710 whole entry): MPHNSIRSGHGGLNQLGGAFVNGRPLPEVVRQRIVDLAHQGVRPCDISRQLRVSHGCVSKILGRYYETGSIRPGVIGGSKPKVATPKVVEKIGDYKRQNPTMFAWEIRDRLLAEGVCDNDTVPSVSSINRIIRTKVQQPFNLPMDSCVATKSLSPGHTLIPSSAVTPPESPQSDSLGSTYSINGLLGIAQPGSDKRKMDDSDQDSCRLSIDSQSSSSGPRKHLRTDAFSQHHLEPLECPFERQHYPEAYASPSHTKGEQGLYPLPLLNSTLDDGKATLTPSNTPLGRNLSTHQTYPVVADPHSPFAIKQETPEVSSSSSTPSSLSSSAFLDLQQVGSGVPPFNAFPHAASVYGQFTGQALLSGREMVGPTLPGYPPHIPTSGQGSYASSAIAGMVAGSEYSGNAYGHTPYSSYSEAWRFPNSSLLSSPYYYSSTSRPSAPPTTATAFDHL

On to `Cc1nn(Cc2ccccc2Cl)c2sc(C(=O)NC(C)(C)C)cc12`, for which the CC50 in test [1] was > 50 µM (active).

For `O=C(COC(=O)/C(=C/c1cccs1)c1cccs1)NC(c1ccccc1)c1ccccc1`, on Paired box protein Pax-8, the AC50 was 8.36 µM (active).

Consider `Cn1nc(C(F)(F)F)cc1C(=O)NC1CCCCCC1`, for which the EC50 in “cells [2]” and in “cells [3]” was > 350 µM (not active) in each case.

For the compound `CNc1nc(N/N=C/c2cc3c(cc2[N+](=O)[O-])OCO3)nc(Nc2ccccc2)n1`, the EC50 in [4] was 12.7 µM (active); in test [5], 9.97 µM (active); in [6], > 60 µM (inconclusive); in [7], 2.42 µM (active); in [8] it was 9.21 µM (active). The concentration at half-maximal activity (AC50) in the test on INS1 was 13.2 µM (active).

As to `Cc1c(C(=O)c2cccc3ccccc23)c2cccc3c2n1[C@H](CN1CCOCC1)CO3`, the AC50 at Paired box protein Pax-8 was 8.77 µM (active); in [9] it was 3.47 µM (active). Also, the results for the EC50 in test [6] and in [7] were 55.9 µM (active) and 0.887 µM (active), respectively.

Take `O=C1N/C(=C/c2cccs2)C(=O)N1Cc1ccc(Br)cc1`: the EC50 in “cells [2]” and in “cells [3]” was > 350 µM (not active) in each case.

For the compound `CC(C)(C)OC(=O)NCc1ccc(NC(=O)c2[nH]cnc2C(=O)NCCCCNC(=O)c2nc[nH]c2C(=O)Nc2ccc(CNC(=O)OC(C)(C)C)cc2)cc1`, the AC50 in the test on INS1 was 3.36 µM (active); in test [9], 1.73 µM (active).

Consider `CCCCNc1nc2c(c(=O)n(C)c(=O)n2C)n1Cc1cccc(OC)c1`, for which the AC50 in test [10] is 3.87 µM (active); in test [11], 1.13 µM (active); in test [12] it was 0.284 µM (active).

Regarding `CN(C)c1ccc(C=C2SC(=S)NC2=O)cc1`, the EC50 in [13] is 4.78 µM (active).

Regarding `O=C(c1ccc(-c2ccc(Cl)cc2)o1)N1CCN(c2ccc([N+](=O)[O-])cc2Cl)CC1`, the AC50 with INS1 was 3.58 µM (active). The CC50 in test [1] is 9.46 µM (active).

For `CC(=O)Nc1c([N+](=O)[O-])cc(C)c(Cl)c1[N+](=O)[O-]`, the EC50 in “cells [2]” and in “cells [3]” was > 350 µM (not active) in each case.

Regarding `Fc1cnc(N/N=C/c2ccc(-c3ccc(Br)cc3)o2)nc1N1CCOCC1`, the CC50 in [1] is 6.89 µM (active).

Turning to `COC(=O)[C@@]12CCCCN1[C@H](c1ccc(-c3ccc(OC)cc3)cc1)[C@@H]1C(=O)N(C)C(=O)[C@@H]12`, the CC50 in [1] was 17.7 µM (active).

On to `O=C(NCCc1csc(-c2cccc(F)c2)n1)c1ccco1`, for which the EC50 in “cells [2]” and in the test “cells [3]” was > 350 µM (not active) each time.

On to `Cc1cccc2sc(N3CCN(C(=O)C4COc5ccccc5O4)CC3)nc12` (stereo not drawn), for which the CC50 in [1] was 25.8 µM (active).

As to `Cc1oc(=O)c(NC(=O)c2ccc(Cl)cc2)cc1C(=O)c1ccccc1`, the AC50 in test [10] is > 70 µM (inactive); in test [12], 32.1 µM (active).

Turning to `Cn1c(SCc2ccc(F)cc2Cl)nc2ccccc2c1=O`, the AC50 in test [10] is 8.38 µM (active); in test [11], 3.09 µM (active); in [12] it was 8.65 µM (active).

Consider `Cc1ccc(S(=O)(=O)N(C)C[C@H]2Oc3ccc(NC(=O)Nc4ccc(C(F)(F)F)cc4)cc3CC(=O)N([C@H](C)CO)C[C@@H]2C)cc1`, for which the AC50 at Paired box protein Pax-8 is 7.34 µM (active).

Take `Cc1cc(Sc2ccc([N+](=O)[O-])cn2)ccc1Br`: the figures for the AC50 in test [10] and in [11] were > 70 µM (inactive) and 31.4 µM (active), respectively.

`CC(Sc1nnc(COc2ccc([N+](=O)[O-])cc2)n1C)C(=O)O` (stereo not drawn): the EC50 in the test “cells [2]” and in the test “cells [3]” was > 350 µM (not active) throughout.

Regarding `O=C(COC(=O)Cc1ccc(S(=O)(=O)N2CCCCC2)s1)Nc1ccc2c(c1)OCO2`, the EC50 in the test “cells [2]” and in “cells [3]” was > 350 µM (not active) in each case.

As for `C(=N\N1CCN(C(c2ccccc2)c2ccccc2)CC1)/c1ccc2c(c1)OCO2`, the EC50 is > 120 µM (not active) in test [4], 0.672 µM (active) in test [5] and > 120 µM (not active) in test [8].

Regarding `COc1ccc(-c2csc(NC(=S)NC(=O)/C=C/c3ccco3)n2)cc1Br`, the EC50 in [4] was 9.94 µM (inconclusive); in test [5] it was > 120 µM (not active); in test [8], > 120 µM (not active). The AC50 in test [9] was 0.47 µM (active).

Take `CC(NC(=O)c1cc(COc2ccc3ncccc3c2)on1)c1ccc(F)cc1` (stereo not drawn): the AC50 in test [10] was 2.86 µM (active); in test [11] it was 2.2 µM (active); in [12] it was 2.28 µM (active); with INS1, 4.52 µM (active).

For `Cc1ccc(OCc2nnc(SCC(=O)Nc3cccc4ccccc34)n2-c2ccccc2)cc1`, the EC50 in test [4], in test [5] and in [8] was > 120 µM (not active) throughout.

Regarding `CCOC(=O)Cc1csc(NC(=O)/C=C/c2ccc(Cl)cc2)n1`, the CC50 in test [1] was 4.57 µM (active).

With `CCOC(=O)C1CCN(C(=O)C2CCCN(c3ncnc4c3nc3n4CCCCC3)C2)CC1` (stereo not drawn), the EC50 in the test “cells [2]” and in “cells [3]” was > 350 µM (not active) in each case.

With `C[C@@H]1CCCCO[C@@H](CN(C)Cc2ccc(C(F)(F)F)cc2)[C@H](C)CN([C@@H](C)CO)C(=O)c2cc(NS(=O)(=O)c3ccc(Cl)cc3)ccc2O1`, the AC50 at Paired box protein Pax-8 is 9.89 µM (active).

Regarding `CCn1nc(C)c(NC(=O)/C=C/c2ccc(OC)c(COc3ccc(Br)cc3)c2)c1C`, the EC50 was 13.4 µM (active) in test [4], 23.7 µM (active) in [5], > 60 µM (not active) in [6] and 2.52 µM (active) in test [7]. The CC50 in test [1] was 31.6 µM (active).

With `COc1cccc(Cn2nnc3c(O)nc(C4CCCN(C(=O)c5ccccc5Cl)C4)nc32)c1` (stereo not drawn), the EC50 in test [4], in test [5] and in test [8] was > 120 µM (not active) in each case. Besides, the AC50 on Cytochrome P450 1A2 was 25.1 µM (inconclusive).

Regarding `O=C(NS(=O)(=O)c1ccc2c(c1)OCCO2)c1ccccc1`, the EC50 in “cells [2]” and in the test “cells [3]” was > 350 µM (not active) each time.

Regarding `Cc1nn(C)c(Cl)c1CN1CCCC(CO)(Cc2ccccc2)C1` (stereo not drawn), the CC50 in [1] was > 50 µM (active).

For `COc1ccc(-c2nc(-c3ccc(NC(=O)c4ccncc4)cc3)no2)cc1OC`, the values for the AC50 in test [10], in [11] and in test [12] were 4.96 µM (active), 3.85 µM (active) and 2.36 µM (active), respectively.

Consider `CN(C#N)c1nccc(-c2cccs2)n1`, for which, in test [1], the CC50 is 23.8 µM (active).

Take `CCc1ccc(CNCc2ccc(OCC(O)CN(C)Cc3ccccc3)cc2)nc1` (stereo not drawn): the AC50 in test [10] was 25 µM (active); in test [11], 14.2 µM (active); in [12], 4.43 µM (active).

On to `CCOc1ccc(-c2nnc(N3CCCCC3)c3ccccc23)cc1`, for which the AC50 in test [10] is > 70 µM (inactive); in test [11], 8.24 µM (active); in test [12], 14.9 µM (active).

The values above are taken from ChEMBL document CHEMBL1201862, “PubChem BioAssay data set” (2004).
